Consider eleven molecules from patent US20250215010A1, “DIAZABICYCLOOCTANE DERIVATIVES USEFUL AS MATRIX METALLOPROTEINASE INHIBITORS” (VASA THERAPEUTICS SPOLKA Z OGRANICZONA ODPOWIEDZIALNOSCIA, priority 2022, published 2025).

Where two headings read alike, the source gives them in different places. Bounds are passed on as bounds.

What all share (assay type): biochemical
The target of one experiment is T1, MMP1 (Homo sapiens, UniProt P03956).
T1 sequence (P03956 100-269 limits assumed): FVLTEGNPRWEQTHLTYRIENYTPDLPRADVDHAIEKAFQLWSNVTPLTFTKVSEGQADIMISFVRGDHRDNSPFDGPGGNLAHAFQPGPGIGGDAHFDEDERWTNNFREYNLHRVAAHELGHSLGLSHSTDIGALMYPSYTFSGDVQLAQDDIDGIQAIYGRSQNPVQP
Description: MMP-1 colorimetric inhibition assay (Enzo kit BML-AK404). Summed up: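 Colorimetric kit run per manufacturer protocol. MMP-1 cleaves a thiopeptide substrate (Ac-PLG-[2-mercapto-4-methylpentanoyl]-LG-OC2H5); released thiol reacts with DTNB, monitored at 415 nm. IC50 (nM) from inhibition curves of normalized values.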

The target of a further experiment is T2, MMP2 (Homo sapiens, UniProt P08253).
T2 sequence (P08253 110-660): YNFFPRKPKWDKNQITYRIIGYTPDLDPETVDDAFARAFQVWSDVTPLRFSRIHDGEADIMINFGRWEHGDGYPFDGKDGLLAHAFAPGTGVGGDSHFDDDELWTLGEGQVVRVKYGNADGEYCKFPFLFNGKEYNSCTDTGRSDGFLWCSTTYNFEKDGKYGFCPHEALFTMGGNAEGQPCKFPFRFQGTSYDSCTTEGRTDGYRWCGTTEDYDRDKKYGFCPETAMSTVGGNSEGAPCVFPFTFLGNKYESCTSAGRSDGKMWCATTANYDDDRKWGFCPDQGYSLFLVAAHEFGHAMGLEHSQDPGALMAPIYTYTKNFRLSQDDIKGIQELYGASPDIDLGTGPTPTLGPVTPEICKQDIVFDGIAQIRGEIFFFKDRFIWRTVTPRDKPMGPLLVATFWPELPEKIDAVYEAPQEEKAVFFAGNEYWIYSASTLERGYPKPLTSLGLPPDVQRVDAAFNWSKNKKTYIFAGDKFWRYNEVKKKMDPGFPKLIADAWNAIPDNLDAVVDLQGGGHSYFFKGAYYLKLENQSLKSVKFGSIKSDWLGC
Nature of the experiment: MMP-2 colorimetric inhibition assay (Enzo kit BML-AK408). The gist of the method:
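Cleavage of the thiopeptide Ac-PLG-[2-mercapto-4-methylpentanoyl]-LG-OC2H5 releases a sulfhydryl that reacts with DTNB, read at 415 nm per the kit protocol. IC50 values (nM) come from inhibition curves of normalized data.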

Another experiment concerns the target MMP9 (Homo sapiens, UniProt P14780). Description: MMP-9 colorimetric inhibition assay (Enzo kit BML-AK410). The gist of the method:
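Colorimetric thioester-substrate assay: hydrolysis of Ac-PLG-[2-mercapto-4-methylpentanoyl]-LG-OC2H5 frees a thiol that reacts with DTNB, read at 415 nm. Run per kit protocol. IC50 (nM) taken from inhibition curves of normalized values.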

The target in the next experiment is T3, MMP13 (Homo sapiens, UniProt P45452).
T3 construct: purchased Enzo Life Sciences, Inc. BML-AK412
Nature of the experiment: MMP-13 colorimetric inhibition assay (Enzo kit BML-AK412). Summed up: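 Thiopeptide chromogenic substrate (Ac-PLG-[2-mercapto-4-methylpentanoyl]-LG-OC2H5); MMP-13 hydrolysis of the thioester yields a thiol that reacts with DTNB, read at 415 nm. IC50 values (nM) derived from inhibition curves of normalized data.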

The target in another experiment is ADAM17 (TACE) (Homo sapiens, UniProt P78536). Description: TACE fluorometric inhibition assay (Enzo kit BML-AK310). The gist of the method: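 Kit-based TACE assay run per manufacturer's protocol, using quenched fluorogenic peptide Mca-PLAQAV-Dpa-RSSSR-NH2 whose cleavage raises Mca fluorescence. Signal read at ex/em 320/420 nm; IC50 (nM) derived from inhibition curves of normalized values.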
ADAM17 (TACE), sequence (P78536 215-477 limits assumed): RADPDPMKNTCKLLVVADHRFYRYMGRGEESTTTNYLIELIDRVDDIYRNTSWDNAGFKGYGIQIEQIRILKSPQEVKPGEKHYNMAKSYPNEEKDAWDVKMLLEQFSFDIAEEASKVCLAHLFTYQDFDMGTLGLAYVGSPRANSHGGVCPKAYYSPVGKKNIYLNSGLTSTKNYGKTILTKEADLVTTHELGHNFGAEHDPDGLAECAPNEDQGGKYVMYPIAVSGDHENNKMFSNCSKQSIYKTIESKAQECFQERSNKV

The next experiment deals with T4, ADAM10 (Homo sapiens, UniProt O14672).
T4 construct: purchased AnaSpec, Inc. AS-72226
T4 sequence (O14672 214-748): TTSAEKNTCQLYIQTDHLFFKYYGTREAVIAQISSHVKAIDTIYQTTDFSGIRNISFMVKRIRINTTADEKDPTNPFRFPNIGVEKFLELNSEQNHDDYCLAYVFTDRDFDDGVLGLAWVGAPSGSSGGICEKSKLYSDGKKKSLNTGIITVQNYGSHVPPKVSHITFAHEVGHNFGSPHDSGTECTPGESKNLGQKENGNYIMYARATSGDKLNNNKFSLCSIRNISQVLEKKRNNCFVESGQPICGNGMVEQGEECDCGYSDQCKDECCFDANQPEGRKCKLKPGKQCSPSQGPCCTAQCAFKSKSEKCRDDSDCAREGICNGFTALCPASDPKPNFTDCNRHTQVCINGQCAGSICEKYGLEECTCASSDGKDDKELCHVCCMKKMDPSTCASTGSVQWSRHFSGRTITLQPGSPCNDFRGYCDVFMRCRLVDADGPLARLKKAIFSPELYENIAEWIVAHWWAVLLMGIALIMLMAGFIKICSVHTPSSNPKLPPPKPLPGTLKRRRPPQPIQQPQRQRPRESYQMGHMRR
Nature of the experiment: SensoLyte 520 ADAM10 fluorometric activity assay (AnaSpec AS-72226). Summed up: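 ADAM10 activity was read by cleavage of a FRET peptide substrate (5-FAM/QXL 520), run per the kit protocol, with fluorescence at 495/520 nm. IC50 values (nM) came from inhibition curves of normalized data.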

[1] abbreviates: thiopeptide substrate, absorbance 415 nm, read-out: MMP 1 IC50 class.
The mark [2] stands for this setting: thiopeptide substrate, absorbance 415 nm, read-out: MMP 2 IC50 class.
[3] abbreviates: thiopeptide substrate, absorbance 415 nm, read-out: MMP 9 IC50 class.
The mark [4] stands for this setting: thiopeptide substrate, absorbance 415 nm, read-out: MMP 13 IC50 class.
Where [5] appears, read: quenched fluorogenic peptide, ex/em 320/420 nm, read-out: TACE IC50 class.
The mark [6] stands for this setting: FRET peptide substrate, ex/em 495/520 nm, read-out: ADAM 10 IC50 class.

MMP9, sequence (P14780 94-707): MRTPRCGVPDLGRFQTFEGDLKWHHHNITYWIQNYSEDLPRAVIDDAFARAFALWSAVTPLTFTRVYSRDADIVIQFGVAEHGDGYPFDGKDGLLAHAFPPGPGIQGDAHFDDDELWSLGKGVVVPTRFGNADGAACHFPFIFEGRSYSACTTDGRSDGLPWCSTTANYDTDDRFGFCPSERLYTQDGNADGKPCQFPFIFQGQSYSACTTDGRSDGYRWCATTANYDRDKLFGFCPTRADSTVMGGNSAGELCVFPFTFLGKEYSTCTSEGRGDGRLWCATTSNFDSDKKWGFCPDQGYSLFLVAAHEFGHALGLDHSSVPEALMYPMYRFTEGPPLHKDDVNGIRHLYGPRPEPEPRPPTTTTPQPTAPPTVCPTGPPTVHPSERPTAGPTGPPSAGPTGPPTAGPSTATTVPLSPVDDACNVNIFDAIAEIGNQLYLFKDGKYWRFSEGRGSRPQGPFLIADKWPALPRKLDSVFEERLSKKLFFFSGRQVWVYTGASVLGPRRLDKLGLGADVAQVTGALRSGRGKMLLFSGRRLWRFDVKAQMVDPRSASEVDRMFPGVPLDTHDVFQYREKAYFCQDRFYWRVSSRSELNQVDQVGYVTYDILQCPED

Take `CC(C)(C)C(=O)N1[C@@H]2CC[C@H]1[C@H](C(=O)NO)N(S(=O)(=O)c1ccc(Oc3ccc(OC(F)(F)F)cc3)nc1)C2` [Example 57, (1S,2R,5R)-N-hydroxy-8-pivaloyl-3-((6-(4-(trifluoro-methoxy)phenoxy)-pyridin-3-yl)-sulfonyl)-3,8-diazabicyclo-[3.2.1]octane-2-carboxamide]: the 50% inhibitory concentration (IC50) at MMP1 (setting [1]) was 1000 to 10000 nM; at MMP2 (setting [2]) it was less than 50 nM; on MMP9 (setting [3]), less than 50 nM; on MMP13 (setting [4]), less than 50 nM; on ADAM17 (TACE) (setting [5]), 1000 to 10000 nM; at ADAM10 (setting [6]), more than 10000 nM.
For `CC(=O)N1[C@@H]2CC[C@H]1[C@H](C(=O)NO)N(S(=O)(=O)c1ccc(Oc3ccc(OC(C)C)cc3)nc1)C2` [Example 58, (1S,2R,5R)-8-acetyl-N-hydroxy-3-((6-(4-isopropoxyphenoxy)-pyridin-3-yl)-sulfonyl)-3,8-diazabicyclo-[3.2.1]octane-2-carboxamide], the IC50 on MMP1 (setting [1]) was 1000 to 10000 nM; on MMP2 (setting [2]) it was less than 50 nM; on MMP9 (setting [3]) it was less than 50 nM; at MMP13 (setting [4]), less than 50 nM; on ADAM17 (TACE) (setting [5]) it was more than 10000 nM; on ADAM10 (setting [6]) it was more than 10000 nM.
On to `CCC(=O)N1[C@@H]2CC[C@H]1[C@H](C(=O)NO)N(S(=O)(=O)c1ccc(Oc3ccc(OC(C)C)cc3)nc1)C2` [Example 59, (1S,2R,5R)-N-hydroxy-3-((6-(4-isopropoxyphenoxy)pyridin-3-yl)-sulfonyl)-8-propionyl-3,8-diaza-bicyclo[3.2.1]octane-2-carboxamide], for which the IC50 is 1000 to 10000 nM at MMP1 (setting [1]); less than 50 nM on MMP2 (setting [2]); less than 50 nM at MMP9 (setting [3]); less than 50 nM at MMP13 (setting [4]); more than 10000 nM at ADAM17 (TACE) (setting [5]); more than 10000 nM on ADAM10 (setting [6]).
Regarding `CC(=O)N1[C@@H]2CC[C@H]1[C@H](C(=O)NO)N(S(=O)(=O)c1ccc(Oc3ccc(OCC(F)(F)F)cc3)nc1)C2` [Example 62, (1S,2R,5R)-8-acetyl-N-hydroxy-3-((6-(4-(2,2,2-trifluoro-ethoxy)phenoxy)-pyridin-3-yl)-sulfonyl)-3,8-diazabicyclo[3.2.1]-octane-2-carboxamide], the IC50 at MMP1 (setting [1]) is 1000 to 10000 nM; on MMP2 (setting [2]), less than 50 nM; on MMP9 (setting [3]), less than 50 nM; at MMP13 (setting [4]), less than 50 nM; on ADAM17 (TACE) (setting [5]), more than 10000 nM; at ADAM10 (setting [6]) it was more than 10000 nM.
For the molecule `COc1ccc(Oc2ccc(S(=O)(=O)N3C[C@H]4CC[C@@H]([C@@H]3C(=O)NO)N4C(C)=O)cn2)cc1F` [Example 63, (1S,2R,5R)-8-acetyl-3-((6-(3-fluoro-4-methoxyphenoxy)-pyridin-3-yl)-sulfonyl)-N-hydroxy-3,8-diazabicyclo[3.2.1]-octane-2-carboxamide], the IC50 on MMP1 (setting [1]) is 1000 to 10000 nM; on MMP2 (setting [2]), less than 50 nM; on MMP9 (setting [3]) it was less than 50 nM; at MMP13 (setting [4]) it was less than 50 nM; at ADAM17 (TACE) (setting [5]), 1000 to 10000 nM; at ADAM10 (setting [6]), 1000 to 10000 nM.
On to `CCOC(=O)N1[C@@H]2CC[C@H]1[C@H](C(=O)NO)N(S(=O)(=O)c1ccc(Oc3ccc(F)cc3)nc1)C2` [Example 65, ethyl (1S,2R,5R)-3-((6-(4-fluorophenoxy)pyridin-3-yl)sulfonyl)-2-(hydroxycarbamoyl)-3,8-diazabicyclo[3.2.1]octane-8-carboxylate], for which the IC50 on MMP1 (setting [1]) is 50 to 1000 nM; at MMP2 (setting [2]) it was less than 50 nM; at MMP9 (setting [3]), less than 50 nM; at MMP13 (setting [4]), less than 50 nM; at ADAM17 (TACE) (setting [5]), 1000 to 10000 nM; at ADAM10 (setting [6]), more than 10000 nM.
In the case of `COC(=O)N1[C@@H]2CC[C@H]1[C@H](C(=O)NO)N(S(=O)(=O)c1ccc(Oc3ccc(F)cc3)nc1)C2` [Example 66, methyl (1S,2R,5R)-3-((6-(4-fluoro-phenoxy)pyridin-3-yl)sulfonyl)-2-(hydroxycarbamoyl)-3,8-diazabicyclo-[3.2.1]octane-8-carboxylate], the IC50 on MMP1 (setting [1]) was 1000 to 10000 nM; at MMP2 (setting [2]), less than 50 nM; on MMP9 (setting [3]), less than 50 nM; at MMP13 (setting [4]), less than 50 nM; at ADAM17 (TACE) (setting [5]) it was 1000 to 10000 nM; at ADAM10 (setting [6]) it was more than 10000 nM.
On to `CC(C)OC(=O)N1[C@@H]2CC[C@H]1[C@H](C(=O)NO)N(S(=O)(=O)c1ccc(Oc3ccc(F)cc3)nc1)C2` [Example 67, isopropyl (1S,2R,5R)-3-((6-(4-fluorophenoxy)-pyridin-3-yl)-sulfonyl)-2-(hydroxycarbamoyl)-3,8-diazabicyclo-[3.2.1]octane-8-carboxylate], for which the IC50 at MMP1 (setting [1]) is 50 to 1000 nM; at MMP2 (setting [2]), less than 50 nM; at MMP9 (setting [3]), less than 50 nM; on MMP13 (setting [4]), less than 50 nM; on ADAM17 (TACE) (setting [5]) it was 1000 to 10000 nM; on ADAM10 (setting [6]) it was more than 10000 nM.
As for `O=C(NO)[C@H]1[C@@H]2CC[C@H](CN1S(=O)(=O)c1ccc(Oc3ccc(OC(F)(F)F)cc3)nc1)N2C(=O)N1CCOCC1` [Example 70, (1S,2R,5R)-N-hydroxy-8-(morpholine-4-carbonyl)-3-((6-(4-(trifluoromethoxy)-phenoxy)pyridin-3-yl)sulfonyl)-3,8-diazabicyclo[3.2.1]-octane-2-carboxamide], the IC50 on MMP1 (setting [1]) was more than 10000 nM; at MMP2 (setting [2]), less than 50 nM; on MMP9 (setting [3]), less than 50 nM; on MMP13 (setting [4]), less than 50 nM; on ADAM17 (TACE) (setting [5]), 1000 to 10000 nM; on ADAM10 (setting [6]), more than 10000 nM.
As for `O=C(NO)[C@H]1[C@@H]2CC[C@H](CN1S(=O)(=O)c1ccc(Oc3ccc(OCC(F)(F)F)cc3)nc1)N2C(=O)N1CCOCC1` [Example 72, (1S,2R,5R)-N-hydroxy-8-(morpholine-4-carbonyl)-3-((6-(4-(2,2,2-trifluoroethoxy)-phenoxy)pyridin-3-yl)sulfonyl)-3,8-diazabicyclo[3.2.1]-octane-2-carboxamide], the half-inhibitory concentration (IC50) on MMP1 is 1000 to 10000 nM; at MMP2, less than 50 nM; against MMP9, less than 50 nM; at MMP13, less than 50 nM; at ADAM17 (TACE), more than 10000 nM; against ADAM10, more than 10000 nM.
Take `COc1ccc(Oc2ccc(S(=O)(=O)N3C[C@H]4CC[C@@H]([C@@H]3C(=O)NO)N4C(=O)N3CCOCC3)cn2)cc1F` [Example 73, (1S,2R,5R)-3-((6-(3-fluoro-4-methoxy-phenoxy)pyridin-3-yl)-sulfonyl)-N-hydroxy-8-(morpholine-4-carbonyl)-3,8-diazabicyclo[3.2.1]-octane-2-carboxamide]: the concentration for half-maximal inhibition (IC50) at MMP1 (setting [1]) is more than 10000 nM; at MMP2 (setting [2]) it was less than 50 nM; at MMP9 (setting [3]) it was less than 50 nM; at MMP13 (setting [4]) it was less than 50 nM; at ADAM17 (TACE) (setting [5]) it was 1000 to 10000 nM; on ADAM10 (setting [6]), 1000 to 10000 nM.

What is called IC50 is the concentration that gives 50% inhibition.
